Laboratory results taken from ChEMBL document CHEMBL1135700, “Design, synthesis and activity of ascorbic acid prodrugs of nipecotic, kynurenic and diclophenamic acids, liable to increase neurotropic activity” (2002).

Columns and labels:
[1] = target: Solute carrier family 23 member 2 (Homo sapiens) (UniProt Q9UGH3); conditions: 24 uM
Description: [14C]- AA uptake mediated by sodium-dependent ascorbate transporters, SVCT2 measured as Michaelis-Menten constant (Kt) at a concentration of 24 uM

[2] = target: Solute carrier family 23 member 2 (Homo sapiens) (UniProt Q9UGH3); conditions: 12 uM
Description: [14C]- AA uptake mediated by sodium-dependent ascorbate transporters, SVCT2 measured as Michaelis-Menten constant (Kt) at a concentration of 12 uM

[3] = target: Solute carrier family 23 member 2 (Homo sapiens) (UniProt Q9UGH3); conditions: 120 uM
Description: [14C]- AA uptake mediated by sodium-dependent ascorbate transporters, SVCT2 measured as Michaelis-Menten constant (Kt) at a concentration of 120 uM

[4] = target: Solute carrier family 23 member 2 (Homo sapiens) (UniProt Q9UGH3); conditions: 6 uM
Description: [14C]- AA uptake mediated by sodium-dependent ascorbate transporters, SVCT2 measured as Michaelis-Menten constant (Kt) at a concentration of 6 uM

[5] = target: Solute carrier family 23 member 2 (Homo sapiens) (UniProt Q9UGH3); conditions: 60 uM
Description: [14C]- AA uptake mediated by sodium-dependent ascorbate transporters, SVCT2 measured as Michaelis-Menten constant (Kt) at a concentration of 60 uM

[6] = system: O=C(O)Cc1ccccc1Nc1c(Cl)cccc1Cl; conditions: 12 uM
Description: ([14C]- AA) and its uptake mediated by sodium-dependent ascorbate transporters, SVCT2 measured as Maximum velocity (Vmax) at concentration of 12 uM

[7] = system: O=C(O)Cc1ccccc1Nc1c(Cl)cccc1Cl; conditions: 120 uM
Description: ([14C]- AA) and its uptake mediated by sodium-dependent ascorbate transporters, SVCT2 measured as Maximum velocity (Vmax) at concentration of 120 uM

[8] = system: O=C(O)Cc1ccccc1Nc1c(Cl)cccc1Cl; conditions: 24 uM
Description: ([14C]- AA) and its uptake mediated by sodium-dependent ascorbate transporters, SVCT2 measured as Maximum velocity (Vmax) at concentration of 24 uM

[9] = system: O=C(O)Cc1ccccc1Nc1c(Cl)cccc1Cl; conditions: 6 uM
Description: ([14C]- AA) and its uptake mediated by sodium-dependent ascorbate transporters, SVCT2 measured as Maximum velocity (Vmax) at concentration of 6 uM

[10] = system: O=C(O)Cc1ccccc1Nc1c(Cl)cccc1Cl; conditions: 60 uM
Description: ([14C]- AA) and its uptake mediated by sodium-dependent ascorbate transporters, SVCT2 measured as Maximum velocity (Vmax) at concentration of 60 uM

| Molecule | Kt [1] | Kt [2] | Kt [3] | Kt [4] | Kt [5] | Vmax (nM hr-1 (10e6*cells)-1) [6] | Vmax (nM hr-1 (10e6*cells)-1) [7] | Vmax (nM hr-1 (10e6*cells)-1) [8] | Vmax (nM hr-1 (10e6*cells)-1) [9] | Vmax (nM hr-1 (10e6*cells)-1) [10] |
| --- | --- | --- | --- | --- | --- | --- | --- | --- | --- | --- |
| O=C(O)Cc1ccccc1Nc1c(Cl)cccc1Cl | 31 µM | 29 µM | 28 µM | 32 µM | 29 µM |  |  |  |  |  |
| Solute carrier family 23 member 2 (Homo sapiens), Q9UGH3 |  |  |  |  |  | 2 | 0.26 | 1.4 | 3.1 | 0.49 |
